According to US20230125429A1 (priority 2017, published 2023):
Entries after “also recorded” stand apart in the source; their conditions may differ.

Key:
[1] = test system: primary mouse hepatocytes (PMH); experiment: Growth of primary mouse hepatocytes, one-hour treatment; assay type: cell-based; conditions: as high as 320 µM
[2] = test system: serum starved HepG2 cells; assay type: cell-based, human
[3] = test system: mimosine-treated HepG2 cells; experiment: One-hour treatment of mimosine-treated HepG2 cells, live cell imaging; assay type: cell-based, human
[4] = test system: mimosine treated HepG2 cells; experiment: Cell cycle analysis by flow cytometry (PI staining); assay type: cell-based, human; conditions: for G2/M cells: 1 µM
[5] = test system: wild-type keratinocytes; experiment: Growth of wild-type primary keratinocytes, continuous exposure; assay type: cell-based, mouse
Protocol: For the neonatal mouse keratinocyte culture, the dorsal skins of neonatal wild type or Par2 knockout mice were harvested from wild type or Par2 knockout mice, respectively. The skins were incubated overnight at 4° C. in a 0.25% solution of trypsin (Life Technologies, USA) in phosphate-buffered saline (PBS) without calcium and magnesium. The epidermis was then separated from the adjoining dermis, and the dispersed epidermal cells were collected in suspension Eagle’s minimal essential medium (SMEM) (Life Technologies, USA) supplemented with glutamine and 8% calcium free fetal calf serum (FCS) (Life Technologies, USA). The cells were plated onto individual wells of 48 well plates (Corning, USA), which were pre-coated with collagen (Life Technologies, USA), at a density of 70,000 cells/well. The cell cultures were kept for 12 hours at 34° C. in a humidified incubator containing 8% CO2. Low calcium (0.05 mM) S-MEM, containing 8% FCS was then added to initiate the culture. The culture medium was changed every 2 days.
For primary hepatocytes, the seeded cells were monitored for up to 48 hours either without any treatment (as a control) or with various types of treatments. For primary keratinocytes, cells in 48-well plates were monitored either without any treatment or with various types of treatment for up to 96 hours. For HepG2, cells 96-well plates were monitored either without any treatment or with various types of treatments for up to 48 hours. The IncuCyte Zoom was set to take a set of images at fixed locations (4 per well for 96-well plates and 16 per well for 48-well plates and 12-well plates) every three hours.
To address this question, we took a genetic approach.

[6] = test system: ERK phosphorylation; experiment: ERK phosphorylation in HepG2 cells (Western blot); assay type: cell-based, human; conditions: serum-starved HepG2; trypsin 50 nM, Triptolide 1 µM, Triptonide 1 µM; 0-40 minutes
[7] = test system: phosphorylated histone H3 (p-H3); experiment: Histone H3 phosphorylation in HepG2 cells (Western blot); assay type: cell-based, human; conditions: 1 µM for 1 hour, 2 hours after mimosine release; monitored to hour 12
Protocol: HepG2 cells were synchronized by mimosine for 28 hours and released into regular culture medium for 2 hours. […] After the treatment, cells were incubated in the regular culture condition and samples were harvested every hour from 2 to 12 hours (shown on top of the top panel). Western blots were performed to determine the relative levels of phosphorylated histone H3 (p-H3), CDK1 and beta actin (ATCB) (as controls).
After treatments, cells were harvested and protein extracts were prepared by lysis in RIPA buffer (Solarbio). Western blots were performed using specific antibodies and SuperSignal® West Pico Chemiluminescent Substrate (Pierce). Antibodies were purchased from commercial venders as described below: polyclonal rabbit anti-PAR2 antibodies (ABGENT), polyclonal rabbit anti-Beta-Actin antibodies (Cell Signaling Technology), anti-ERK (Cell Signaling Technology), anti-phosphorylated ERK (Cell Signaling Technology), anti-phosphorylated histone H3 (Abchem), anti-CDK1 (Abcam).
After the Triptonide treatments, cells were returned to regular culture condition and samples were harvested at various time points for Western blot analysis.

[8] = test system: cAMP; experiment: Measurement of cAMP levels in HepG2 cells; assay type: cell-based, human
[9] = test system: PKA; experiment: Measurement of PKA activity in HepG2 cells; assay type: cell-based, human
[10] = test system: HepG2 cells; experiment: Blocking the AC-cAMP-PKA pathway, growth of HepG2 cells; assay type: cell-based, human
[11] = test system: HepG2-based orthotopic xenograft tumor; set-up: species or system nude mice; conditions: mouse, in vivo
[12] = test system: HepG2-GFP orthotopic xenograft tumor

Compound: CC(C)[C@]12O[C@H]1[C@@H]1O[C@@]13[C@@]1(C)CCC4=C(COC4=O)[C@@H]1C[C@@H]1O[C@@]13C2=O [Triptonide]
- growth inhibitory effect on PMHs [1]: no significant growth inhibitory effect
- cells exhibiting the features of mitotic catastrophe [2]: approximately 60%
- effect on growth of serum starved HepG2 cells [2]: no significant impacts; also recorded: growth inhibitory only when it was administered at the 0 and 2 hours after the starvation
- effect of treatment applied at hour 0 after release [3]: became static, but no significant accumulation of mitotic catastrophe cells
- sensitivity to mitotic catastrophe-inducing effect by time of treatment [3]: only sensitive when the treatment was applied at 2 hours
- G2/M cells ([4]; 11 hours after mimosine release): 82%
- G2/M cells ([4]; 24 hours after mimosine release): 80%
- G2/M cells ([4]; 37 hours after mimosine release): 78%
- sub-G1 (<2N, apoptotic) population ([4]; 10 µM, by 24 hours): significant peaks of the sub-G1
- growth inhibitory effect, wild-type versus Par2 knockout ([5]; continuous exposure): more potent growth inhibitory effect on the Par2 wild-type PMHs than their Par2 knockout counterparts
- toxicity to Par2-expressing primary mouse keratinocytes ([5]; long-term exposure, as low as 50 nM): quite toxic
- levels of phosphorylated ERK [6]: only an acute transient increase
- level of histone H3 phosphorylation [7]: remained very low
- amplitude of cAMP elevation versus control ([8]; 1 µM at 2 hours after mimosine treatment, serum-free): about 4 folds
- levels of cAMP ([8]; 1 µM at non-sensitive time, 4 hours after mimosine treatment): modest elevation
- levels of cAMP ([8]; treatment 2 hours after mimosine, Trypsin 50 nM, Triptonide 1 µM, serum-free): two waves of elevation
- levels of PKA activities, acute ([9]; 1 µM, serum free, first 30 minutes after treatment): two-wave elevation
- level of PKA activity around G2/M transition ([9]; one-hour treatment in regular medium (Trypsin 50 nM, Triptonide 1 µM), hour 9 and 10 after mimosine): remained largely unchanged
- effect on growth of HepG2 cells [10]: significant growth inhibitory effect
- intensities of the tumor specific signal / tumor mass [11]: very effective in reducing the tumor mass; also recorded: reduced the tumor specific signal to the background level
- average body weight of the animals ([12]; 25 mg/kg by gavage every other day): did not have any significant impact
- tumor specific signals during follow-up ([12]; remaining mice, another four months without further treatments): No tumor specific signals were ever detected again
- autopsy for tumors ([12]; six of the treated mice): did not reveal any signs of tumors
